# Several values for one entry are separate records, joined by “and”; a condition that tells them apart may be missing. Equal entries are not always repeated. Where two headings read alike, the source gives them in different places.
# Experiments:
# [1] = tested on: T cells, B cells and NK cells; details: cited from earlier work
# CD34+ cells [2] = details: historical plerixafor alone data, Devine et al., Blood 2008 (n=25); cited from earlier work
# CD34+ cells [3] = assay: Phase 1 clinical trial: mobilization of CD34+ cells into peripheral blood (multicolor flow cytometry); details: for % ≥40/μL: plerixafor
# CD34+CD90+CD45RA− cells = assay: Phase 1 clinical trial: mobilization of CD34+CD90+CD45RA− cells into peripheral blood (flow cytometry)
# [4] = tested on: hematopoietic stem and progenitor cell mobilization; details: cited from earlier work
# MMP-9 = assay: Phase 1 clinical trial: plasma MMP-9 and TIMP-1 by sandwich immunoassay; format: in vivo, human; details: monotherapy, all six doses
# Experimental: FIGS. 6A and 6B show the plasma levels of MMP-9 and molar ratio of MMP-9:TIMP-1, respectively, over the course of 24 hours following MGTA-145 monotherapy. MMP-9 is an enzyme involved in the breakdown of extracellular matrix and indicative of neutrophil migration whereas TIMP-1 blocks MMP-9 mediated migration. Therefore, an increase in MMP-9 or an increase in MMP-9:TIMP-1 ratio is indicative of increased neutrophil mobilization. […] The plasma levels of MMP-9 then decreased towards initial concentrations over the course of 24 hours.
# [5] = tested on: neutrophil activation markers (L-selectin, CD11b, CD18, CD66); assay: Phase 1 clinical trial: neutrophil activation markers by flow cytometry; format: in vivo, human; details: monotherapy
# Excerpt: G-CSF, the traditional therapy of choice for mobilization of neutrophils, enhances neutrophil activation, as measured by CD11b and CD18, but this has been identified to be problematic, for example, in patients with sickle cell disease where activated neutrophils adhere to the endothelium, thereby increasing the risk of severe and life-threatening complications such as vaso-occlusive crises. […] In contrast, the administration of MGTA-145 monotherapy (across all six doses) induces less than a 2-fold change relative to baseline for the neutrophil activation markers of CD11b and CD18.
# CXCR2 = target: T1, CXCR2 (Homo sapiens, UniProt P25025); assay: Phase 1 clinical trial: CXCR2 expression on peripheral blood neutrophils; format: in vivo
# T1 construct: endogenous in cells; host or cells: peripheral blood neutrophils of trial subjects (in vivo dosing, ex vivo measurement)
# T1 sequence (P25025 1-360): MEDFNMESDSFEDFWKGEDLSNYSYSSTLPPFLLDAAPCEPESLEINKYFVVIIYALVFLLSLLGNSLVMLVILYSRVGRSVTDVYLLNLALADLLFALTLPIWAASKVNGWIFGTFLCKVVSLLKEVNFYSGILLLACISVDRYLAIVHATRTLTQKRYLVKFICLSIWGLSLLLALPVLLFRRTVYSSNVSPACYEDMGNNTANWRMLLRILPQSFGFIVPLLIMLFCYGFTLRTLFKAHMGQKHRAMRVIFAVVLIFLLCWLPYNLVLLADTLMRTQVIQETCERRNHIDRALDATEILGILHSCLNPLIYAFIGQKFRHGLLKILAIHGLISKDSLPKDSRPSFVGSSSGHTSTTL
# Experimental: Lines from bottom to top at 6 hrs post-administration represent 0.3 mg/kg, 0.15 mg/kg, 0.075 mg/kg, 0.03 mg/kg, 0.015 mg/kg, […], respectively.
# [6] = tested on: relative engraftment (CRU); assay: Primary and secondary transplantation of mobilized mouse cells at limit dilution (CRU); format: in vivo, mice; details: compared to the other cohorts
# Excerpt: Mice (CD45.1) were mobilized according to the scheme shown in FIG. 24 and mobilized cells transplanted into CD45.2 mice at limit dilution.
# neutrophils = assay: Phase 1 clinical trial: mobilization of neutrophils (automated hematology analyzer); details: monotherapy
# Experimental: (§1) The dose of MGTA-145 was one of 0.0075 mg/kg, 0.015 mg/kg, 0.03 mg/kg, 0.075 mg/kg, 0.15 mg/kg, or 0.3 mg/kg. […] The dose of MGTA-145 was one of 0.015 mg/kg, 0.03 mg/kg, 0.075 mg/kg, or 0.15 mg/kg. […] The dose of MGTA-145 was one of 0.03 mg/kg or 0.075 mg/kg.
# (§2) Mobilization of white blood cells (WBCs), neutrophils, lymphocytes, basophils, and eosinophils was quantified by automated hematology analyzer.
# white blood cells (WBCs) = assay: Phase 1 clinical trial: mobilization of white blood cells (automated hematology analyzer); details: monotherapy
# Experimental: as §1, §2
# [7] = Chen et al., 2019, plerixafor N = 50+, median yield of 2 LP
# [8] = Devine et al, 2008, median yield of 1 LP, plerixafor N = 24, G-CSF N = 8
# [9] = Part C, first day, combination (0.03 or […]) 8 patients, plerixafor alone
# [10] = Part C, placebo + plerixafor on Day 2 (n=2)
# [11] = higher doses (0.075, 0.15, 0.3 mg/kg), 2 hours post administration
# [12] = lower doses (0.0075, 0.015, 0.03 mg/kg), between 1 and 2 hours post administration
# [13] = Part A monotherapy, the other doses
# [14] = Part A, MGTA-145 on Day 1, 0.03 mg/kg (n=4)
# [15] = Part A, MGTA-145 on Day 1, 0.3 mg/kg (n=4)
molecule,measurement,setting,value
"c1cc(CN2CCCNCCNCCCNCC2)ccc1CN1CCCNCCNCCCNCC1 [Plerixafor, 1,1′-[1,4-phenylenebis(methylene)]-bis-1,4,8,11-tetra-azacyclotetradecane]","CD3+ in graft, Median (range)",[1]; [7],6.0 (2.7-13.0) ×10^8/kg
same,"CD4+ in graft, Median (range)",[1]; [7],3.6 (2.0-9.4) ×10^8/kg
same,"CD8+ in graft, Median (range)",[1]; [7],2.2 (0.5-5.0) ×10^8/kg
same,"CD19+ in graft, Median (range)",[1]; [7],1.5 (0.2-7.4) ×10^8/kg
same,"CD34+ in graft, Median (range)",[1]; [7],4.7 (0.9-9.6) ×10^6/kg
same,"CD56+ in graft, Median (range)",[1]; [7],0.4 (0.0-1.1) ×10^8/kg
same,"CD3+ in graft, Median (range)",[1]; [8],4.6 (1.5-7.8) ×10^8/kg
same,"CD4+ in graft, Median (range)",[1]; [8],3.2 (1-5.7) ×10^8/kg
same,"CD8+ in graft, Median (range)",[1]; [8],1.3 (0.4-3.4) ×10^8/kg
same,"CD34+ in graft, Median (range)",[1]; [8],2.9 (1.2-6.3) ×10^6/kg
same,"CD56+ in graft, Median (range)",[1]; [8],0.3 (0.1-1.0) ×10^8/kg
same,"CD19+ in graft, Median (range)","[1]; Devine et al, 2008, median yield of 1 LP, plerixafor N = 24",1.0 (0.2-2.4) ×10^8/kg
same,Patients with peak CD34+ ≥20 cells/μL,CD34+ cells [2],28%
same,Patients with peak CD34+ ≥40 cells/μL,CD34+ cells [2],4%
same,CD34+ AUC2-8h Median (range),"CD34+ cells [3]; 2-8 hours post plerixafor dose, plerixafor alone",102 (61-341)
same,% ≥40/μL,CD34+ cells [3]; Part B,21% (3/16)
same,Peak CD34+ (#/μL) Median (range),"CD34+ cells [3]; Part B, plerixafor (placebo + plerixafor) on Day 1",26 (13-78) #/μL
same,Number of patients with peak CD34+ count of at least 20 cells per microliter,CD34+ cells [3]; [9],none
same,Number of patients with peak CD34+ count of at least 40 cells per microliter,CD34+ cells [3]; [9],none
same,Peak CD34+ (#/μL) Median (range),CD34+ cells [3]; [10],17 (12-22) #/μL
same,Percent ≥20/μL,CD34+ cells [3]; [10],50 (1/2) %
same,Peak CD34+ (#/μL) Median (range),"CD34+ cells [3]; Part C, plerixafor (placebo + plerixafor) on Day 1 (n=2)",18 (16-20) #/μL
same,% ≥40/μL,"CD34+ cells [3]; Part C, first day (n=2)",0% (0/2)
same,% ≥40/μL,CD34+ cells [3]; Pooled B + C,14% (2/14)
same,Peak CD34+ (#/μL) Median (range),"CD34+ cells [3]; Pooled B + C, plerixafor (placebo + plerixafor) on Day 1",20 (13-78) #/μL and 23 (13-78) #/μL
same,Peak CD34+/μL (FC vs. baseline) Median (range),CD34+ cells [3]; plerixafor alone,15 (8-62) fold
same,Tmax of peak CD34+ level Median (range),CD34+ cells [3]; plerixafor alone,8 (3-12) h
same,Patients with peak CD34+ ≥20 cells/μL,CD34+ cells [3]; plerixafor alone (n=14),50%
same,Patients with peak CD34+ ≥40 cells/μL,CD34+ cells [3]; plerixafor alone (n=14),14%
same,"CD34+CD90+CD45RA− cells, median peak",CD34+CD90+CD45RA− cells; plerixafor alone,8 cells/μL
"Gro-β T N65D: Gro-β T with aspartic acid in place of asparagine at position 65, SEQ ID NO: 4 [reference compound]",Potency (hematopoietic stem and progenitor cell mobilization) relative to Gro-β T,"[4]; described in U.S. Pat. No. 6,447,766",substantially greater than that of Gro-β T
MGTA-145: CXCR2 agonist; truncated Gro-β with deletion of the first four N-terminal amino acids (SEQ ID NO: 2),Molar ratio of MMP-9:TIMP-1,MMP-9,rapid increase 30 minutes post-administration
same,Plasma levels of MMP-9,MMP-9,increased sharply within 30 minutes post-administration
same,"Fold change relative to baseline, CD66",[5]; all doses except the highest (0.3 mg/kg),< 2 fold
same,"Fold change relative to baseline, CD11b and CD18",[5]; all six doses,< 2 fold
same,"Fold change relative to baseline, L-selectin",[5]; all six doses,< 2 fold
same,CXCR2 expression recovery prior to the second dose,"CXCR2; 0.07 mg/kg, staggered dosing, two consecutive days",~80 % of baseline
same,CXCR2 on peripheral blood neutrophils,"CXCR2; monotherapy, followed by recovery over 24 hours",rapid downregulation
same,"Engraftment rates, secondary transplantation",[6],vastly improved engraftment rates
same,Potency to induce hematopoietic stem and progenitor cell mobilization relative to Gro-β,"[4]; described in U.S. Pat. No. 6,080,398",superior to that of Gro-β by multiple orders of magnitude
same,Initial plateau of neutrophil mobilization,neutrophils; [11],5-8 ×10^3 cells/μL
same,Peak mobilization of neutrophils,neutrophils; [12],13-15 ×10^3 cells/μL
same,Initial plateau of WBC mobilization,white blood cells (WBCs); [11],6-10 ×10^3 cells/μL
same,Peak mobilization of WBCs,white blood cells (WBCs); [12],15-17 ×10^3 cells/μL
same,Fold increase of CD34+ cells,"CD34+ cells [3]; Part A monotherapy, 0.03 mg/kg",7 fold
same,Peak concentration of CD34+ cells,"CD34+ cells [3]; Part A monotherapy, 0.03 mg/kg",~10 cells/μL
same,Time of peak CD34+ mobilization post administration,"CD34+ cells [3]; Part A monotherapy, across the six doses (0.0075-0.3 mg/kg)",about 30 minutes
same,Fold increase of CD34+ cells,CD34+ cells [3]; [13],2-3 fold
same,Peak concentration of CD34+ cells,"CD34+ cells [3]; Part A monotherapy, the other doses (0.0075, 0.015, 0.075, 0.15, 0.3 mg/kg)",~5 cells/μL
same,Peak CD34+ (#/μL) Median (range),CD34+ cells [3]; [14],12 (2-19) #/μL
same,Percent ≥20/μL,CD34+ cells [3]; [14],0 (0/4) %
same,Peak CD34+ (#/μL) Median (range),CD34+ cells [3]; [15],3 (3-13) #/μL
same,Percent ≥20/μL,CD34+ cells [3]; [15],0 (0/4) %
same,Time of peak CD34+CD90+CD45RA− mobilization post administration,CD34+CD90+CD45RA− cells; Part A monotherapy,30 min
same,Fold increase of CD34+CD90+CD45RA− cells,"CD34+CD90+CD45RA− cells; Part A monotherapy, 0.03 mg/kg",~8.3 fold
same,Peak concentration of CD34+CD90+CD45RA− cells,"CD34+CD90+CD45RA− cells; Part A monotherapy, 0.03 mg/kg",~3 cells/μL
same,Fold increase of CD34+CD90+CD45RA− cells,CD34+CD90+CD45RA− cells; [13],2-3.5 fold
same,Peak concentration of CD34+CD90+CD45RA− cells,CD34+CD90+CD45RA− cells; [13],1-1.6 cells/μL
